The target of the test is T1, Mushroom tyrosinase.
T1 construct: gene PPO1
Put plainly: dopachrome formation, absorbance at […] nm. It counts as biochemical. Conditions: L-DOPA 0.85 mM, phosphate buffer 20 mM pH 6.8, 37 °C; 10 min preincubation; methods name kojic acid as the standard, table and text name hydroquinone.

Each structure is given as a SMILES string.

In turn, `Oc1ccc(O)cc1` [hydroquinone] displayed a MeOH of 131.34 ± 9.82 µg/mL.

The values above are taken from PMC8916850, “Preparation of Spice Extracts: Evaluation of Their Phytochemical, Antioxidant, Antityrosinase, and Anti-α-Glucosidase Properties Exploring Their Mechanism of Enzyme Inhibition with Antibrowning and Antidiabetic Studies In Vivo” (BioMed Research International, 2022).
